Measured values published in patent US10844071B2, “Substituted [1,2,3]triazolo[4,5-d]pyrimidines that lower stress-induced p-tau” (BUCK INSTITUTE FOR RESEARCH ON AGING, priority 2015, dated 2020).
pKi: −log10 of the molar value. Converted amounts (≈) assume the structure as drawn. “Also recorded” adds a separate entry of the source. Like-named read-outs stand apart in the source and are kept apart here.

Assays:
[1] = test system: SH-SY5Y cells; assay: Primary screen in SH-SY5Y cells (tau, p-tau); assay type: cell-based
Experimental: (§1) As described below, in vitro studies were performed using SHSY-5Y cells. These cells are a useful neurological model that differentiate into cells with morphological and biochemical characteristics of mature neurons including mature isoforms of tau.
However, J04 did lower p-tau to the same level as J03 and significant may not have been reached due to low N #.

[2] = test system: SH-SY5Y cells; assay: Secondary screen in SH-SY5Y cells with CRF stimulation (tau, p-tau, sAPPα); assay type: cell-based
Experimental: as §1
In an initial study, SHSY-5Y cells were cultured without serum to induce differentiation and increase tau expression. […] The increases were proportional and both were about 50%. J03 (FIG. 4A) reduced the CRF-induced tau increases more than the p-tau increases. The increase in p-tau with CRF was expected, but the increase in tau less predictable as CRF reduces neuronal differentiation (see Chen et al. (2004) Proc. Natl. Acad. Sci. USA, 101(44): 15782-15787), however, it can increase tau accumulation.

[3] = molecular target: T1, CRF1 (Homo sapiens, UniProt P34998); assay: CRF1 binding (Ki)
T1 sequence (P34998 24-415): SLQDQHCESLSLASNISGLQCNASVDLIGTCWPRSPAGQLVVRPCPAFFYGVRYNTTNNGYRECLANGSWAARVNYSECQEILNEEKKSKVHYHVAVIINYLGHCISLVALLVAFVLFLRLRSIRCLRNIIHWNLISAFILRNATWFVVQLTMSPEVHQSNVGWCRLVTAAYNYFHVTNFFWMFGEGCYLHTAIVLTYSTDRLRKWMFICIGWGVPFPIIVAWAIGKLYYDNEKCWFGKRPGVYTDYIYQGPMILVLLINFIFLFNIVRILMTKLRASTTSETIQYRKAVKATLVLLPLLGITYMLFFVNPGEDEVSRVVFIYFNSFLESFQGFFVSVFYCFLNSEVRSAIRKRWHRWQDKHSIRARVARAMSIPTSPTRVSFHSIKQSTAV

[4] = molecular target: T2, CRFR2 (Homo sapiens, UniProt Q13324); assay: CRFR2 binding (Ki)
T2 sequence (Q13324 1-411): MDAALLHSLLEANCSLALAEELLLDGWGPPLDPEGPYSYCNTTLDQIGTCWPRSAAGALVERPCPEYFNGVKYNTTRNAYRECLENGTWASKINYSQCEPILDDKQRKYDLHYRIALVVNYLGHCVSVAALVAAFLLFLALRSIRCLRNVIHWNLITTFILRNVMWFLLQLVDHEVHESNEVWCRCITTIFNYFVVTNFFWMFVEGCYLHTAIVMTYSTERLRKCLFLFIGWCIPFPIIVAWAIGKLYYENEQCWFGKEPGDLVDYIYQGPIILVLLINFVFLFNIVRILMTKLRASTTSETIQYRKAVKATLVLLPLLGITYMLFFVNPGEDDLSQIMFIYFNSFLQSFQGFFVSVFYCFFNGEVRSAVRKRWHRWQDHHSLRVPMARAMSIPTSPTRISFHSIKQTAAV

[5] = PAMPA; assay type: in vitro ADME; conditions: Tertiary
[6] = Solubility in DMSO; assay type: physicochemical; conditions: organic solvent or mixture, read-out: Solubility
[7] = In vivo pharmacokinetics, brain and plasma levels; parameters: species or system mouse
[8] = test system: J20 mice; assay: J03 pilot study #1 in J20 mice (SQ, 12 days); assay type: in vivo, mouse; conditions: SQ 10 mkd
Experimental: (§2) Animal experiments were performed using J20 mice. The J20 mouse is a model of for Alzheimer's disease. This model overexpresses human APP with two mutations linked to familial Alzheimer's disease (the APP KM670/671NL (Swedish) and […] (Indiana) mutations).
In pilot study #1, J20 mice housed singly were treated by SQ injection of J02 in PEG/b-MCD at 10 mkd for 12 days. NOR analysis of object memory (N=5/group) was performed. […] There was no difference in Aβ1-40 (panel B), but a decrease in Aβ1-42 (panel C).

[9] = test system: J20 mice; assay: J03 pilot study #2 in J20 mice (oral, longer duration); assay type: in vivo, mouse; conditions: oral delivery
Experimental: as §2
Based on these promising results, the study was repeated (pilot study #2) with oral delivery and a longer duration.

[10] = test system: J20 mice; assay: J17 pilot study in J20 mice (oral, 28 days); assay type: in vivo, mouse
Experimental: as §2
In a J17 pilot study (#1 pilot study) male and female J20 mice were housed singly and treated with J17 at 10 mkd by oral delivery for 28 days. […]

[11] = test system: p-tau; assay: Cortisol-induced (stress-induced) p-tau increase in vitro; assay type: cell-based
Source text: To identify therapeutic candidates, a clinical library of CRF-1R inhibitors to was screened to determine their effects on cortisol-induced p-tau increases. […] J03 was shown specifically to inhibit stress-induced p-tau increases by cortisol in vitro.

[12] = SH-SY5Y cells, CRF-induced increase

For `CCC(COC)n1nnc2c(Nc3ccc(OC)cc3C)nc(C)cc21` (centres unmarked) [Compound J03, N-(4-Methoxy-2-methylphenyl)-1-[1-(methoxymethyl)propyl]-6-methyl-1H-1,2,3-triazolo[4,5-c]pyridine-4-amine], the Tau % ([1]; Primary (SH-SY5Y)) was “Unchanged”, the p-tau ([1]; SH-SY5Y cells, no CRF) was “decreased” and the p-tau/tau ratios ([2]; 50 and 100 nM CRF, FIG. 28 panel C) was “highly significantly decreased”. The sAPPα ([2]; FIG. 28 panel D, significance for J03 at 100 nM CRF) was “trend for sAPPα to be higher”, the “p-tau after CRF exposure” value [2, 12] was “reduces; also recorded: decreased” and the “tau after CRF exposure” value [2, 12] was “reduces; also recorded: decreased”. The “sAPPα after CRF exposure” value ([2]; SH-SY5Y cells, FIG. 19) was “lower”, the “sAPPα (%)” value ([2]; Secondary (SH-Sy5Y, CRF stimulation)) was “Unchanged” and the tau ([2]; absence of CRF and presence of 100 nM CRF, FIG. 28 panel A) was “significantly decreased”. For the same molecule, the p-tau ([2]; presence and absence of CRF, FIG. 28 panel B) was “significantly reduced”, the pKi ([3]; Tertiary, read-out: CRF1 Ki) was 8.15 and the pKi ([3]; read-out: CRF-1 antagonist Ki) was ~8.10. For the same molecule, the pKi [4] was < 5.00, the PAMPA [5] was 0.92 and the solubility [6] was ~10 mM (≈ 3550 µg/mL). The brain levels ([7]; 10 mk subcutaneous (SQ) injection, J20 mice) was “low”, the concentration at 2 h ([7]; J20, mouse, brain, two hours after oral dosing in formulation, first day of pilot study #2) was 170 ng/g and the brain levels ([7]; end of pilot study #2, oral dosing) was “about 35 ng/g”. The Aβ1-40 [8] was “no difference”, the Aβ1-40/1-42 ratio [8] was “significantly increased” and the Aβ1-42 [8] was “decrease”. For the same molecule, the P-tau [8] was “significantly lower”, the “SAPP (sAPPα levels)” value [8] was “very slightly increased” and the sAPP/Aβ1-42 ratio [8] was “very slightly increased”. The p-tau/tau ratio ([8]; great individual variation) was “slightly higher”, the Total tau ([8]; largely due to one mouse) was “decreased” and the “behavior (NOR analysis of object memory)” value ([8]; single housed J20 mice) was “slight improvement”. The Aβ1-40 [9] was “unchanged”, the Aβ1-40/Aβ1-42 ratio [9] was “unchanged” and the Aβ1-42 [9] was “unchanged”. The novel location assay [9] was “performed well”, the novel object assay [9] was “performed well” and the sAPPα [9] was “increased slightly”. The sAPPα/sAPPβ ratio [9] was “slightly increased”, the sAPPβ [9] was “unchanged” and the p-tau ([9]; decrease reached statistical significance) was “decreased”. For the same molecule, the novel object preference ([10]; all mice) was “increased novel object preference more than 17”, the sAPPα ([10]; both genders) was “increase” and the sAPPα/sAPPβ ratio ([10]; males) was “slight increase”. The “activity (total interactions)” value ([10]; not significant) was “lowered” and the “stress-induced p-tau increases by cortisol” value [11] was “inhibit”.
